# Measurements taken from patent US8809290B2 (priority 2002, dated 2014).
# No end group written: not given here.
# Key:
# antibodies against hIgG = tested on: antibodies against hIgG; set-up: species or system C57BL/6 mice; conditions: mouse, in vivo, iv
# [1] = tested on: chemokine gene-expression; set-up: species or system mice; conditions: mouse, in vivo
# CD 11b+ APC = type: binding, C57 BL/6 mice
# [2] = tested on: T cell immunity to MHC class I-restricted peptides R10K and SIINFEKL; set-up: species or system BALB/c mice; C57BL/6 mice; conditions: mouse, in vivo
# [3] = tested on: Human THP-1 monocytic cells; type: binding
# [4] = tested on: SP2/0 cells expressing IgNP; set-up: species or system Balb/c mice; conditions: mouse, in vivo
# [5] = mouse, in vivo, iv
Substance,prevention of high zone tolerance (anti-hIgG endpoint titers) (antibodies against hIgG),chemokine expression in pulmonary tissue [1],receptor binding on APC (competition with tagged pA:pU) (CD 11b+ APC),"T cell immunity to MHC class I-restricted peptides (IFN-γ, IL-4 SFC/spleen) [2]",competition of binding of tagged pA:pU to THP-1 cells [3],outcome of tumor-bearing mice [4],detection of epitope in the blood as function of time post-injection [5]
Polyadenylic-Polyuridylic Acid [pA:pU],largely prevent high zone tolerance,trigger expression of a wide range of chemokines,bind to different cellular receptors,able to promote increased T cell immunity to different MHC class I-restricted peptides,able to compete out the binding of tagged pA:pU,succumbed to disease,
SFERFEIFPKE [HA peptide],,,,,,,not detected in the periphery
